Measurements from patent publication US20220408724A1, “METHOD FOR CONTROLLING METABOLISM OF BRANCHED FATTY ACID” (KAO CORPORATION, priority 2019, published 2022).
Where “and” joins values, the source holds several entries; their conditions need not be identical. Equal values may be shown once.

Assays:
Type in all cases: cell-based
[1] = system: Micrococcus aloeverae; assay: Suppression of metabolite 2-methylbutanoic acid from 14-methylhexadecanoic acid
Procedure: (§1) After culture on fabric prepared in the same manner as in the above (1), 3 ml of methanol was added, and extraction was carried out under ultrasonic irradiation for 30 minutes (20° C.). The extraction liquid was mixed with (a 1000 ppm methanol solution of) an ADAM reagent of Funakoshi Co., Ltd. at 1:1 (volume ratio) and left overnight under room temperature and dark place conditions. After that, 4-methyl-3-hexenoic acid as a metabolite from 14-methylhexadecanoic acid was quantified by HPLC. The quantification conditions are as follows.
(§2) The production amount of 4-methyl-3-hexenoic acid after culture on the fabric to which each metabolism controlling agent was added was quantified, and the ratio of the production amount to that of 4-methyl-3-hexenoic acid in the case of adding no metabolism controlling agent (control) was calculated as a metabolite suppression rate (%). The higher a numerical value thereof is, the more the metabolism is suppressed. Note that the metabolite suppression rate was determined by the following formula:
(§3) Metabolite suppression rate(%)=100×[(D−C)/D] • C: production amount of metabolite of example or comparative example (μg/fabric g) • D: production amount of metabolite of control (μg/fabric g)
The metabolism of 14-methylhexadecanoic acid by bacteria of the genus Micrococcus was tested in the same manner as in example 1.
In this example, Micrococcus aloeverae (strain isolated from clothing) was used as a microorganism.
Further, in this example, a bacterial suspension of 10^7 (CFU/ml) prepared by using an SCD liquid medium (NIHON PHARMACEUTICAL CO., LTD.) diluted to 1/10 with ion exchange water was used as a bacterial suspension.
Further, in this example, 2-methylbutanoic acid was quantified as a metabolite from 14-methylhexadecanoic acid, and the metabolite suppression rate was determined in the same manner as in example 1.
(§4) Note that, in this example, C12OH (1-dodecanol) was used as the metabolism controlling agent.

[2] = system: Escherichia coli (NBRC3972); assay: Suppression of metabolism of 14-methylhexadecanoic acid on cotton fabric
Procedure: A methanol solution in which 14-methylhexadecanoic acid (SIGMA-ALDRICH) was dissolved was added dropwise to 3 cm×3 cm pieces of sterilized plain-weave cotton fabric to make it adhered to the fabric. The adhesion amount of 14-methylhexadecanoic acid was set to 10 μg per piece of the plain-weave cotton fabric (100 μg/fabric g).
Further, a methanol solution in which each metabolism controlling agent was dissolved was prepared and added dropwise to the fabric to which 14-methylhexadecanoic acid adhered, and it was thereafter dried for an hour. This fabric was placed in a sterilized screw tube bottle No. 3 (Maruemu Corporation) and 100 μl of the bacterial suspension was inoculated thereto, and culture was carried out under 37° C.; conditions for 21 hours.
3 ml of methanol was added to the screw tube bottle after culture, and extraction was carried out under ultrasonic irradiation for 30 minutes (20° C.). The extraction liquid was mixed with a (trimethylsilyl)diazomethane hexane solution (FUJIFILM Wako Pure Chemical Corporation) at 9:1 (volume ratio) and left overnight under room temperature and dark place conditions. After that, 14-methylhexadecanoic acid remaining on the fabric was quantified by GC. The quantification conditions for GC are as follows. • GC: Agilent 7890A • GC column: Agilent DB-1 30 m×250 μm×0.25 μm • Temperature rise condition: 50° C. (held for 3 minutes)-(10° C./min)-300° C. (held for 5 minutes) • Sample injection volume: 1 μl • Split ratio: 1:12 • Detector: FID
as §2, with “residual” for “production”, “14-methylhexadecanoic” for “4-methyl-3-hexenoic”, “the” for “each”, “metabolism” for “metabolite”
Metabolism suppression rate(%)=[1−(100−A)/(100−B)]×100 • A: residual amount of 14-methylhexadecanoic acid of example or comparative example (μg/fabric g) • B: residual amount of 14-methylhexadecanoic acid of control (μg/fabric g)
(§5) The metabolism of 14-methylhexadecanoic acid by bacteria of the genus Escherichia (Escherichia coli) was tested in the same manner as in example 1.
(§6) In this example, Escherichia coli (NBRC3972) was used as a microorganism.
(§7) Further, in this example, a bacterial suspension of 10^6 (CFU/ml) prepared by using an NB liquid medium diluted to 1/10 with ion exchange water was used as a bacterial suspension.
as §4

[3] = system: Escherichia coli (NBRC3972); assay: Suppression of metabolite 4-methylhexanoic acid from 14-methylhexadecanoic acid
Procedure: as §1, §2, §3, §5, §6, §7
Further, in this example, 4-methylhexanoic acid was quantified as a metabolite from 14-methylhexadecanoic acid, and the metabolite suppression rate was determined in the same manner as in example 1.
as §4

[4] = system: Rhodotorula mucilaginosa; assay: as above
Procedure: The extraction liquid was mixed with (a 1000 ppm methanol solution of) an ADAM reagent of Funakoshi Co., Ltd. at 1:1 (volume ratio) and left overnight under room temperature and dark place conditions. […] The quantification conditions are as follows. […] The higher a numerical value thereof is, the more the metabolism is suppressed. Note that the metabolite suppression rate was determined by the following formula: […] In this example, Rhodotorula mucilaginosa (strain isolated from clothing) was used as a microorganism. Further, in this example, the bacteria were precultured under conditions of a PDA agar medium (Difco), 30° C.; and 48 hours. Further, in this example, a bacterial suspension of 10^7 (CFU/ml) prepared by using a PDB liquid medium (Difco) diluted to 1/10 with ion exchange water was used as a bacterial suspension.

CCCCCCCCCCCCO [Example C12OH, 1-dodecanol]
Metabolite suppression rate (%) ([1]; agent 100 μg/fabric g): 21% | Metabolite suppression rate (%) ([1]; agent 250 μg/fabric g): 79% and 74% | Metabolite suppression rate (%) ([1]; agent 500 μg/fabric g): 75% | Metabolite suppression rate (%) ([1]; agent 1000 μg/fabric g): 75% | Metabolism suppression rate (%) ([2]; agent 500 μg/fabric g): 39% and 21% | Metabolism suppression rate (%) ([2]; agent 1000 μg/fabric g): 90% and 61% | Metabolism suppression rate (%) ([2]; agent 2000 μg/fabric g): 66% | Metabolism suppression rate (%) ([2]; agent 3000 μg/fabric g): 73% | Metabolite suppression rate (%) ([3]; agent 500 μg/fabric g): 74% and 41% | Metabolite suppression rate (%) ([3]; agent 1000 μg/fabric g): 93% and 65% | Metabolite suppression rate (%) ([3]; agent 2000 μg/fabric g): 77% | Metabolite suppression rate (%) ([3]; agent 3000 μg/fabric g): 80% | Metabolite suppression rate (%) ([4]; agent 250 μg/fabric g): 62% and 72.50% | Metabolite suppression rate (%) ([4]; agent 500 μg/fabric g): 65.80% | Metabolite suppression rate (%) ([4]; agent 1000 μg/fabric g): 82.20%
